Source: publication PMC12040169 (PLOS Biology, 2025)

Test: in vitro
Conditions: human, hela cells, % viability

Going from `O=S(=O)(NC[C@H]1C[C@@H]2CC[N@]1C[C@@H]2CN1CCOCC1)c1ccc(Cl)cc1` [CBK288762] to `COc1ccc(S(=O)(=O)NC[C@H]2C[C@@H]3CC[N@]2C[C@@H]3CN2CCCCC2)cc1` [CBK288764], the viability at 28.5 h, 10 µM rises from 92.4% to 98.9%.

Going from `CC(=O)c1ccc(NC(=O)NC[C@H]2C[C@@H]3CC[N@]2C[C@@H]3CN2CCN(C)CC2)cc1` [CBK288768] to `COc1ccccc1N1CCN(C[C@H]2C[N@@]3CC[C@H]2C[C@@H]3CNS(C)(=O)=O)CC1` [CBK288770], the viability at 28.5 h, 10 µM falls from 116% to 87.5%.

First: COc1ccc(S(=O)(=O)NC[C@H]2C[C@@H]3CC[N@]2C[C@@H]3CN2CCSCC2)cc1 [CBK288769]
Second: COc1ccc(C(=O)N2CC[C@H]3CC(=O)N(CCN4CCNC4=O)CC[C@H]3C2)cc1 [CBK288795]
The viability at 28.5 h, 10 µM of the first is lower: 86.6% for the first, 110% for the second.

First: CC[C@H]1CN(C(=O)c2cccnc2)CC[C@H]1CC(=O)NCc1ccc2c(c1)OCO2 [CBK288771]
Second: C=CCNC(=O)N1CC[C@H]2CC(=O)N(Cc3ccc4c(c3)OCO4)CC[C@H]2C1 [CBK288794]
The viability at 28.5 h, 10 µM of the first is lower: 87.7% for the first, 97.8% for the second.

Compared with `CC[C@H]1CN(C(=O)NC(C)C)CC[C@H]1CC(=O)Nc1nccs1` [CBK288774], `CC[C@H]1CN(S(=O)(=O)c2c(C)noc2C)CC[C@H]1CC(=O)Nc1nccs1` [CBK288779] is lower in viability at 28.5 h, 10 µM: 109% for the first, 88.3% for the second.

Going from `CC[C@H]1CN(C(=O)Nc2cccc(C(F)(F)F)c2)CC[C@H]1CC(=O)O` [CBK288776] to `CC[C@H]1CN(C(=O)Nc2ccccc2)CC[C@H]1CC(=O)N(C)CC#N` [CBK288777], the viability at 28.5 h, 10 µM rises from 89.3% to 101%.

Compared with `CCCNC(=O)C[C@@H]1CCN(S(=O)(=O)c2c(C)noc2C)C[C@@H]1CC` [CBK288780], `CC(C)(C)c1cc(C[C@H]2CNCC[C@H]2CC(=O)Nc2nccs2)no1` [CBK288798] is lower in viability at 28.5 h, 10 µM: 103% for the first, 81% for the second.

Compared with `O=C(O)C[C@@H]1CCN(C(=O)C2CCCCC2)C[C@@H]1CCN1CCCCC1` [CBK288781], `CC(=O)N1CCN([C@H]2[C@@H]3OC[C@@H](O3)[C@@H](NC(=O)NC3CCCCC3)[C@@H]2O)CC1` [CBK288810] is higher in viability at 28.5 h, 10 µM: 90.1% for the first, 101% for the second.

Compared with `COc1ccc(C(=O)N2CC[C@H]3CC(=O)N(CCNC(C)=O)CC[C@H]3C2)cc1` [CBK288784], `COc1cccc(NC(=O)N2CC[C@H]3CC(=O)N(c4ccccc4)CC[C@H]3C2)c1` [CBK288787] is higher in viability at 28.5 h, 10 µM: 78.8% for the first, 95.4% for the second.

Going from `O=C1C[C@@H]2CCN(C(=O)Nc3cccc(C(F)(F)F)c3)C[C@@H]2CCN1CCc1c[nH]cn1` [CBK288786] to `O=C1C[C@@H]2CCN(C(=O)COc3ccccc3)C[C@@H]2CCN1Cc1cccnc1` [CBK288793], the viability at 28.5 h, 10 µM falls from 105% to 82%.

Compared with `CC(C)N1CC[C@H]2CN(C(=O)CCC(=O)O)CC[C@H]2CC1=O` [CBK288789], `COCc1cn(C[C@H]2CC3CCN2C[C@@H]3C(=O)NC2CC2)nn1` (stereo partly drawn) [CBK288835] is higher in viability at 28.5 h, 10 µM: 87.8% for the first, 98.6% for the second.

Going from `CC(C)(C)c1cc(C[C@H]2CNCC[C@H]2CC(=O)N2CCN(c3ccccn3)CC2)no1` [CBK288799] to `CC(C)(C)NC(=O)C[C@@H]1CCNC[C@@H]1Cc1cc(-c2ccc(F)cc2)on1` [CBK288802], the viability at 28.5 h, 10 µM rises from 87.4% to 99.2%.

Compared with `O=C(C[C@@H]1CCNC[C@@H]1Cc1cc(-c2ccc(F)cc2)on1)Nc1ccccc1` [CBK288801], `CN1C[C@@H](NC(=O)Nc2ccccc2)C[C@H]1c1nc(Cc2ccccc2)no1` [CBK288860] is lower in viability at 28.5 h, 10 µM: 96.4% for the first, 85.2% for the second.

First: Cc1nn(CCC#N)c(C)c1[C@@H]1C=C[C@@H](NS(=O)(=O)c2ccccc2)C1 [CBK288805]
Second: Cc1nn(-c2cccc(Br)c2)c(C)c1[C@@H]1C=C[C@@H](NS(C)(=O)=O)C1 [CBK288806]
The viability at 28.5 h, 10 µM of the first is higher: 91% for the first, 86.3% for the second.

Going from `COc1ccc(CN[C@H]2[C@H](O)[C@@H](N3CCN(C(C)=O)CC3)[C@@H]3OC[C@H]2O3)cc1` [CBK288808] to `COc1ccc(CN[C@H]2[C@H](O)[C@@H](N3CCCC3)[C@@H]3OC[C@H]2O3)cc1` [CBK288827], the viability at 28.5 h, 10 µM falls from 96.9% to 88.6%.

Compared with `O=C(Nc1cccc(C(F)(F)F)c1)N[C@H]1[C@H](O)[C@@H](Oc2ccccc2)[C@@H]2OC[C@H]1O2` [CBK288811], `O=C(Nc1cccc(C(F)(F)F)c1)N[C@H]1[C@H](O)[C@@H](N2CCCC2)[C@@H]2OC[C@H]1O2` [CBK288828] is lower in viability at 28.5 h, 10 µM: 106% for the first, 105% for the second.

Compared with `C=CCNC(=O)N[C@H]1[C@H](O)[C@@H](Oc2ccccc2)[C@@H]2OC[C@H]1O2` [CBK288812], `C=CCNC(=O)N[C@H]1[C@H](O)[C@@H](N2CCCC2)[C@@H]2OC[C@H]1O2` [CBK288829] is higher in viability at 28.5 h, 10 µM: 90.5% for the first, 92.6% for the second.

Compared with `COc1ccc(NC(=O)N[C@H]2[C@H](O)[C@@H](Sc3ccccc3)[C@@H]3OC[C@H]2O3)cc1` [CBK288813], `COc1ccc(NC(=O)N[C@H]2[C@H](O)[C@@H](N3CCOCC3)[C@@H]3OC[C@H]2O3)cc1` [CBK288820] is higher in viability at 28.5 h, 10 µM: 96.4% for the first, 101% for the second.

Going from `O[C@H]1[C@H](NCc2ccccn2)[C@H]2CO[C@H](O2)[C@@H]1N1CCC(Cc2ccccc2)CC1` [CBK288814] to `NC(=O)C1CCN([C@H]2[C@@H]3OC[C@@H](O3)[C@@H](NCc3ccc(F)cc3)[C@@H]2O)CC1` [CBK288830], the viability at 28.5 h, 10 µM rises from 87.2% to 91.2%.

Going from `CCNC(=O)N[C@H]1[C@H](O)[C@@H](N(CC)CC)[C@@H]2OC[C@H]1O2` [CBK288816] to `O=C(Nc1ccc(F)cc1)N[C@H]1[C@H](O)[C@@H](N2CCCCC2)[C@@H]2OC[C@H]1O2` [CBK288826], the viability at 28.5 h, 10 µM falls from 113% to 98.5%.

Compared with `O=C(NC1CCCCC1)N[C@H]1[C@H](O)[C@@H](N2CCN(c3ccccc3)CC2)[C@@H]2OC[C@H]1O2` [CBK288822], `CN1CCN([C@H]2[C@@H]3OC[C@@H](O3)[C@@H](NCc3ccc(CO)o3)[C@@H]2O)CC1` [CBK288823] is lower in viability at 28.5 h, 10 µM: 95% for the first, 91.5% for the second.

First: CN1CCN([C@H]2[C@@H]3OC[C@@H](O3)[C@@H](NCc3ccc(N(C)C)cc3)[C@@H]2O)CC1 [CBK288824]
Second: CC(C)N1CCC[C@H]1c1nc(-c2ccc(N3CCN(C)CC3)nc2)no1 [CBK288881]
The viability at 28.5 h, 10 µM of the first is higher: 109% for the first, 83.6% for the second.

First: O=S(=O)(Cc1noc([C@@H]2C[C@@H](O)CN2Cc2ccc(F)cc2)n1)c1ccc(F)cc1 [CBK288831]
Second: Cc1ccc(S(=O)(=O)Cc2noc([C@@H]3C[C@@H](O)CN3CC3CCCCC3)n2)cc1 [CBK288841]
The viability at 28.5 h, 10 µM of the first is higher: 118% for the first, 115% for the second.

Going from `OCc1ccc(CN2C[C@H](O)C[C@H]2c2nc(-c3cnccn3)no2)o1` [CBK288832] to `OCc1ccc(CN2C[C@H](O)C[C@H]2c2nc(-c3ccc(F)cc3)no2)o1` [CBK288848], the viability at 28.5 h, 10 µM rises from 91.9% to 106%.

Going from `O=[N+]([O-])c1ccc(CN2C[C@H](O)C[C@H]2c2nc(-c3ccccc3)no2)cc1` [CBK288833] to `O[C@@H]1C[C@@H](c2nc(-c3ccccn3)no2)N(Cc2ccccc2)C1` [CBK288900], the viability at 28.5 h, 10 µM falls from 108% to 81.3%.

Compared with `O[C@H]1CN[C@H](c2nc(-c3ccc(OC(F)(F)F)cc3)no2)C1` [CBK288836], `COc1ccc(-c2noc([C@@H]3C[C@@H](O)CN3C3CCOCC3)n2)cc1` [CBK288844] is lower in viability at 28.5 h, 10 µM: 112% for the first, 83.7% for the second.

Compared with `Cc1cccc(-c2noc([C@@H]3C[C@@H](O)CN3Cc3ccccn3)n2)c1` [CBK288837], `CS(=O)(=O)Nc1cc(-c2noc([C@@H]3CCCN3Cc3ccccn3)n2)ccn1` [CBK288885] is lower in viability at 28.5 h, 10 µM: 98.2% for the first, 87.3% for the second.

Compared with `CC(=O)N1CCC(N2C[C@H](O)C[C@H]2c2nc(-c3cccc([N+](=O)[O-])c3)no2)CC1` [CBK288846], `CN1CCC(N2CCC[C@H]2c2nc(-c3ccnc(N4CCOCC4)c3)no2)CC1` [CBK288880] is higher in viability at 28.5 h, 10 µM: 90.5% for the first, 94.4% for the second.

Going from `COc1ccccc1C(=O)N[C@H]1C[C@@H](c2nc(-c3cnccn3)no2)N(C)C1` [CBK288850] to `CN1C[C@@H](NC(=O)Nc2ccccc2)C[C@H]1c1nc(-c2cnccn2)no1` [CBK288851], the viability at 28.5 h, 10 µM falls from 96% to 87.5%.

Going from `COc1cccc(NC(=O)N[C@H]2C[C@@H](c3nc(-c4ccccn4)no3)N(C)C2)c1` [CBK288853] to `CN1C[C@@H](NC(=O)Nc2cccc(C#N)c2)C[C@H]1c1nc(-c2ccncc2)no1` [CBK288856], the viability at 28.5 h, 10 µM rises from 108% to 112%.

Going from `CN1C[C@@H](NC(=O)c2ccc3c(c2)OCO3)C[C@H]1c1nc(-c2ccc(Cl)cc2)no1` [CBK288854] to `CN1C[C@@H](NC(=O)c2ccc3c(c2)OCO3)C[C@H]1c1nc(-c2ccccc2)no1` [CBK288876], the viability at 28.5 h, 10 µM rises from 90.6% to 108%.

Compared with `CN1C[C@@H](NC(=O)c2cccnc2)C[C@H]1c1nc(-c2cccnc2)no1` [CBK288857], `NC(=O)C1CCN(c2ccc(-c3noc([C@@H]4CCCN4Cc4cccnc4)n3)cn2)CC1` [CBK288882] is higher in viability at 28.5 h, 10 µM: 86.7% for the first, 108% for the second.

First: N#Cc1cccc(CN2C[C@H](O)C[C@H]2c2nc(-c3ccc4c(c3)OCO4)no2)c1 [CBK288866]
Second: O[C@@H]1C[C@@H](c2nc(-c3ccc4c(c3)OCO4)no2)N(Cc2cc3ccccc3o2)C1 [CBK288868]
The viability at 28.5 h, 10 µM of the first is higher: 90% for the first, 83.9% for the second.

Going from `CC(=O)Nc1ccc(CN2CCC[C@H]2c2nc(-c3ccnc(NS(C)(=O)=O)c3)no2)cc1` [CBK288888] to `CS(=O)(=O)Nc1cc(-c2noc([C@@H]3CCCN3Cc3ccc(S(C)(=O)=O)cc3)n2)ccn1` [CBK288890], the viability at 28.5 h, 10 µM falls from 109% to 90.7%.

First: CC(C)CN1CCC[C@H]1c1nc(-c2ccc(-n3ccnc3)nc2)no1 [CBK288894]
Second: c1csc(CN2CCC[C@H]2c2nc(-c3ccc(-n4ccnc4)nc3)no2)c1 [CBK288895]
The viability at 28.5 h, 10 µM of the first is lower: 88.5% for the first, 111% for the second.

First: O=C(O)c1ccc(CN2CCC[C@H]2c2nc(-c3ccc(F)cn3)no2)cc1 [CBK288896]
Second: COc1ccc(CN2CCC[C@H]2c2nc(-c3ccc(OC)nc3)no2)c(O)c1 [CBK288898]
The viability at 28.5 h, 10 µM of the first is higher: 96.9% for the first, 92% for the second.

Going from `Nc1ncncc1-c1noc([C@@H]2CCCN2c2ncccn2)n1` [CBK288901] to `CN(C)c1ccc(-c2noc([C@@H]3CCCN3C3CCOCC3)n2)cn1` [CBK288903], the viability at 28.5 h, 10 µM falls from 111% to 93.8%.

`O=C(NC[C@H]1O[C@@H](CC(=O)N2CCN(c3ccccn3)CC2)[C@H](O)[C@@H]1O)C1CC1` [CBK288904] gave a viability at 28.5 h, 10 µM of 107%.
